What was measured:
Assay type in all cases: in vivo
[1] = tested on: field corn (Zea mays L., var. Dekalb 535, CORN); assay: Pre-emerge test, crop safety; settings: rated 14 days after application, 0 = no damage, 100 = complete death
Outline: (§1)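 Herbicidal damage is scored 0 (none) to 100 (complete plant death) two weeks after a simulated field spray. Rates span 15–1000 g ai/ha, delivered in acetone at 187 l/ha. For post-emergence treatments, plants have 2–3 leaves and the spray carries 0.25% v/v non-ionic surfactant.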

[2] = tested on: upland rice (Oryza sp., var. Tebonnet, RICE); assay: Pre-emerge test, crop safety; settings: rated 14 days after application, 0 = no damage, 100 = complete death
Outline: as §1

[3] = tested on: ivyleaf morningglory (Ipomoea hederacea, IPOHE); assay: Post-emerge test, greenhouse herbicide activity screening; settings: post-emerge, 14 days after application, rating scale 0-100
Outline: (§2)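 Plants grown in 10 cm pots of sandy loam mix received acetone-dissolved compounds through a moving flat-fan nozzle. Doses ranged from 15 to 1000 g ai/ha. Pre-emerge pots were seeded one day earlier, post-emerge pots 8–21 days earlier. Fourteen days on, each pot was graded 0–100 for damage.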

[4] = tested on: large crabgrass (Digitaria sanguinalis, DIGSA); assay: as above; settings: post-emerge, 14 days after application, rating scale 0-100
Outline: as §2

[5] = tested on: johnsongrass (Sorghum halepense, SORHA); assay: as above; settings: post-emerge, 14 days after application, rating scale 0-100
Outline: as §2

[6] = tested on: sicklepod (Cassia obtusifolia, CASOB); assay: as above; settings: post-emerge, 14 days after application, rating scale 0-100
Outline: as §2

[7] = tested on: green foxtail (Setaria viridis, SETVI); assay: as above; settings: post-emerge, 14 days after application, rating scale 0-100
Outline: as §2

[8] = tested on: common ragweed (Ambrosia artemisizfolia L., AMBEL); assay: as above; settings: post-emerge, 14 days after application, rating scale 0-100
Outline: as §2

[9] = tested on: redroot pigweed (Amaranthus retroflexus, AMARE); assay: as above; settings: post-emerge, 14 days after application, rating scale 0-100
Outline: as §2

[10] = tested on: lambsquarters (Chenopodium album, CHEAL); assay: as above; settings: post-emerge, 14 days after application, rating scale 0-100
Outline: as §2

[11] = tested on: velvetleaf (Abutilon theophrasti, ABUTH); assay: as above; settings: post-emerge, 14 days after application, rating scale 0-100
Outline: as §2

[12] = tested on: barnyardgrass (Echinochloa crus-galli, ECHCG); assay: as above; settings: post-emerge, 14 days after application, rating scale 0-100
Outline: as §2

[13] = tested on: field corn (Zea mays L., var. Dekalb 535, CORN); assay: Post-emerge test, crop safety; settings: post-emerge, 14 days after application, rating scale 0-100
Outline: as §2

[14] = tested on: upland rice (Oryza sp., var. Tebonnet, RICE); assay: Post-emerge test, crop safety; settings: post-emerge, 14 days after application, rating scale 0-100
Outline: as §2

[15] = tested on: ivyleaf morningglory (Ipomoea hederacea, IPOHE); assay: Pre-emerge test, greenhouse herbicide activity screening; settings: rated 14 days after application, 0 = no damage, 100 = complete death
Outline: (§3)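 Rating: 0–100 visual injury, 14 DAA. Application: acetone, 187 l/ha, 15–1000 g ai/ha, flat-fan track sprayer with nozzle 40–45 cm above soil or canopy. Post-emerge runs used 0.25% v/v surfactant on 2–3 leaf plants.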

[16] = tested on: large crabgrass (Digitaria sanguinalis, DIGSA); assay: as above; settings: rated 14 days after application, 0 = no damage, 100 = complete death
Outline: as §3

[17] = tested on: johnsongrass (Sorghum halepense, SORHA); assay: as above; settings: rated 14 days after application, 0 = no damage, 100 = complete death
Outline: as §3

[18] = tested on: sicklepod (Cassia obtusifolia, CASOB); assay: as above; settings: rated 14 days after application, 0 = no damage, 100 = complete death
Outline: as §3

[19] = tested on: green foxtail (Setaria viridis, SETVI); assay: as above; settings: rated 14 days after application, 0 = no damage, 100 = complete death
Outline: as §3

[20] = tested on: common ragweed (Ambrosia artemisizfolia L., AMBEL); assay: as above; settings: rated 14 days after application, 0 = no damage, 100 = complete death
Outline: as §3

[21] = tested on: lambsquarters (Chenopodium album, CHEAL); assay: as above; settings: rated 14 days after application, 0 = no damage, 100 = complete death
Outline: as §3

[22] = tested on: velvetleaf (Abutilon theophrasti, ABUTH); assay: as above; settings: rated 14 days after application, 0 = no damage, 100 = complete death
Outline: as §3

[23] = tested on: barnyardgrass (Echinochloa crus-galli, ECHCG); assay: as above; settings: rated 14 days after application, 0 = no damage, 100 = complete death
Outline: as §3

[24] = tested on: redroot pigweed (Amaranthus retroflexus, AMARE); assay: as above; settings: rated 14 days after application, 0 = no damage, 100 = complete death
Outline: as §1

## COc1c(Cl)cc(F)c(-n2c(=O)cc(C(F)(F)F)n(C)c2=O)c1NC(=O)c1ccc(Cl)cc1 [2-56]
[1]; 63 g ai/ha
  Pre-emerge phytotoxicity rating (0-100), crop damage, CORN: 80
[1]; 250 g ai/ha
  Pre-emerge phytotoxicity rating (0-100), crop damage, CORN: 95
[2]; 63 g ai/ha
  Pre-emerge phytotoxicity rating (0-100), crop damage, RICE: 30
[2]; 250 g ai/ha
  Pre-emerge phytotoxicity rating (0-100), crop damage, RICE: 95
[3]; 63 g ai/ha
  phytotoxicity rating IPOHE: 100
[3]; 250 g ai/ha
  phytotoxicity rating IPOHE: 100
[4]; 63 g ai/ha
  phytotoxicity rating DIGSA: 0
[4]; 250 g ai/ha
  phytotoxicity rating DIGSA: 30
[5]; 63 g ai/ha
  phytotoxicity rating SORHA: 0
[5]; 250 g ai/ha
  phytotoxicity rating SORHA: 60
[6]; 63 g ai/ha
  phytotoxicity rating CASOB: 100
[6]; 250 g ai/ha
  phytotoxicity rating CASOB: 100
[7]; 63 g ai/ha
  phytotoxicity rating SETVI: 80
[7]; 250 g ai/ha
  phytotoxicity rating SETVI: 60
[8]; 63 g ai/ha
  phytotoxicity rating AMBEL: 70
[8]; 250 g ai/ha
  phytotoxicity rating AMBEL: 100
[9]; 63 g ai/ha
  phytotoxicity rating AMARE: 100
[9]; 250 g ai/ha
  phytotoxicity rating AMARE: 100
[10]; 63 g ai/ha
  phytotoxicity rating CHEAL: 100
[10]; 250 g ai/ha
  phytotoxicity rating CHEAL: 100
[11]; 63 g ai/ha
  phytotoxicity rating ABUTH: 100
[11]; 250 g ai/ha
  phytotoxicity rating ABUTH: 100
[12]; 63 g ai/ha
  phytotoxicity rating ECHCG: 0
[12]; 250 g ai/ha
  phytotoxicity rating ECHCG: 50
[13]; 63 g ai/ha
  phytotoxicity rating CORN: 30
[13]; 250 g ai/ha
  phytotoxicity rating CORN: 80
[14]; 63 g ai/ha
  phytotoxicity rating RICE: 45
[14]; 250 g ai/ha
  phytotoxicity rating RICE: 90
[15]; 63 g ai/ha
  Pre-emerge Herbicidal Activity, phytotoxicity rating (0-100), IPOHE: 100
[15]; 250 g ai/ha
  Pre-emerge Herbicidal Activity, phytotoxicity rating (0-100), IPOHE: 100
[16]; 63 g ai/ha
  Pre-emerge Herbicidal Activity, phytotoxicity rating (0-100), DIGSA: 100
[16]; 250 g ai/ha
  Pre-emerge Herbicidal Activity, phytotoxicity rating (0-100), DIGSA: 100
[17]; 63 g ai/ha
  Pre-emerge Herbicidal Activity, phytotoxicity rating (0-100), SORHA: 99
[17]; 250 g ai/ha
  Pre-emerge Herbicidal Activity, phytotoxicity rating (0-100), SORHA: 100
[18]; 63 g ai/ha
  Pre-emerge Herbicidal Activity, phytotoxicity rating (0-100), CASOB: 100
[18]; 250 g ai/ha
  Pre-emerge Herbicidal Activity, phytotoxicity rating (0-100), CASOB: 100
[19]; 63 g ai/ha
  Pre-emerge Herbicidal Activity, phytotoxicity rating (0-100), SETVI: 100
[19]; 250 g ai/ha
  Pre-emerge Herbicidal Activity, phytotoxicity rating (0-100), SETVI: 100
[20]; 63 g ai/ha
  Pre-emerge Herbicidal Activity, phytotoxicity rating (0-100), AMBEL: 100
[20]; 250 g ai/ha
  Pre-emerge Herbicidal Activity, phytotoxicity rating (0-100), AMBEL: 100
[21]; 63 g ai/ha
  Pre-emerge Herbicidal Activity, phytotoxicity rating (0-100), CHEAL: 100
[21]; 250 g ai/ha
  Pre-emerge Herbicidal Activity, phytotoxicity rating (0-100), CHEAL: 100
[22]; 63 g ai/ha
  Pre-emerge Herbicidal Activity, phytotoxicity rating (0-100), ABUTH: 100
[22]; 250 g ai/ha
  Pre-emerge Herbicidal Activity, phytotoxicity rating (0-100), ABUTH: 100
[23]; 63 g ai/ha
  Pre-emerge Herbicidal Activity, phytotoxicity rating (0-100), ECHCG: 90
[23]; 250 g ai/ha
  Pre-emerge Herbicidal Activity, phytotoxicity rating (0-100), ECHCG: 100
[24]; 63 g ai/ha
  Pre-emerge Herbicidal Activity, phytotoxicity rating (0-100), AMARE: 100
[24]; 250 g ai/ha
  Pre-emerge Herbicidal Activity, phytotoxicity rating (0-100), AMARE: 100

From patent US6355799B1, “Substituted benzene compounds, process for their preparation, and herbicidal and defoliant compositions containing them” (ISK Americas Incorporated, priority 1997, dated 2002)
